From PubChem BioAssay AID210 (DTP/NCI, 2004) come the findings set out here.

Where “and” joins values, the source holds several entries; their conditions need not be identical. Identical values can stand only once. Toxic doses and inconclusive results are not listed.

The assay has as its system CD2F1 mice, ip Colon 26 adenocarcinoma, median survival T/C. The assay can be described thus: NCI In Vivo Anticancer Drug Screen. Data for tumor model Colon 26 Adenocarcinoma (intraperitoneal) in CD2F1 (CDF1) mice. The settings on record: endpoint: median survival time, higher = longer survival. The protocol: The antitumor activity of compounds was measured in mice bearing transplantable tumors. Survival or tumor size were measured and the results are expressed as the measurement made in the treated group (T) divided by the measurement made in the vehicle treated control group (C). The tumor model used in this assay is Colon 26 Adenocarcinoma (intraperitoneal) in CD2F1 (CDF1) mice

The mark [1] stands for this setting: dose: 12.5 mg/kg/injection, schedule: Q04DX003 (ip), vehicle: saline.
The mark [2] stands for this setting: dose: 25.0 mg/kg/injection, schedule: Q04DX003 (ip), vehicle: saline.
[3] abbreviates: dose: 50.0 mg/kg/injection, schedule: Q04DX003 (ip), vehicle: saline.
Where [4] appears, read: dose: 12.5 mg/kg/injection, schedule: Q04DX003 (ip), vehicle: saline with Tween-80.
Setting [5] is: dose: 25.0 mg/kg/injection, schedule: Q04DX003 (ip), vehicle: saline with Tween-80.
Setting [6] is: dose: 50.0 mg/kg/injection, schedule: Q04DX003 (ip), vehicle: saline with Tween-80.
The mark [7] stands for this setting: dose: 100.0 mg/kg/injection, schedule: Q04DX003 (ip), vehicle: saline with Tween-80.
Setting [8] is: dose: 200.0 mg/kg/injection, schedule: Q04DX003 (ip), vehicle: saline with Tween-80.
Where [9] appears, read: dose: 400.0 mg/kg/injection, schedule: Q04DX003 (ip), vehicle: saline with Tween-80.
The mark [10] stands for this setting: dose: 8.0 mg/kg/injection, schedule: Q01DX009 (ip), vehicle: acid diluted with saline.
Where [11] appears, read: dose: 16.0 mg/kg/injection, schedule: Q01DX009 (ip), vehicle: acid diluted with saline.
Setting [12] is: dose: 12.5 mg/kg/injection, schedule: Q04DX003 (ip), vehicle: Klucel (hydroxypropylcellulose) (HPC).
[13] abbreviates: dose: 25.0 mg/kg/injection, schedule: Q04DX003 (ip), vehicle: Klucel (hydroxypropylcellulose) (HPC).
Setting [14] is: dose: 50.0 mg/kg/injection, schedule: Q04DX003 (ip), vehicle: Klucel (hydroxypropylcellulose) (HPC).
The mark [15] stands for this setting: dose: 200.0 mg/kg/injection, schedule: Q04DX003 (ip), vehicle: Klucel (hydroxypropylcellulose) (HPC).

Take `N=C(N)Sc1ccccn1`: the T/C by setting is: under setting [1], 94 % of control; under setting [2], 101 % of control; under setting [3], 91 % of control; (dose: 100.0 mg/kg/injection, schedule: Q04DX003 (ip), vehicle: saline) 91 % of control.

Take `CCOC(C)C(/C=N/NC(N)=S)=NNC(N)=S` (stereo not drawn): the T/C is, setting by setting: under setting [4], 98 % of control; under setting [1], 104 % of control; under setting [5], 98 % of control; under setting [2], 93 % of control; under setting [6], 100 % of control; under setting [3], 113 % of control. The T/C runs as follows: under setting [7], 99 % of control; under setting [8], 97 % of control; under setting [9], 97 % of control.

Regarding `CC(=O)Nc1ccc(O)c(O)c1`, the T/C is 94 % of control under setting [4]; 106 % of control under setting [5]; 96 % of control under setting [6]; 120 % of control under setting [7]; 100 % of control under setting [8]; 108 % of control under setting [9].

In the case of `COc1ccc2c(c1O)-c1cccc3c1[C@@H](C2)N(CCCl)CC3`, the T/C was 107 % of control (dose: 4.0 mg/kg/injection, schedule: Q04DX002 (ip), vehicle: Klucel (hydroxypropylcellulose) (HPC)); 119 % of control (dose: 8.0 mg/kg/injection, schedule: Q04DX002 (ip), vehicle: Klucel (hydroxypropylcellulose) (HPC)); 108 % of control (dose: 16.0 mg/kg/injection, schedule: Q04DX002 (ip), vehicle: Klucel (hydroxypropylcellulose) (HPC)); 124 % of control (dose: 32.0 mg/kg/injection, schedule: Q04DX002 (ip), vehicle: Klucel (hydroxypropylcellulose) (HPC)).

Take `N=c1ccn2c(n1)OC1C(O)C(CO)OC12` (stereo not drawn): the T/C (dose: 111.0 mg/kg/injection, schedule: Q01DX009 (ip), vehicle: saline with Tween-80) is 110 % of control; the T/C (dose: 167.0 mg/kg/injection, schedule: Q01DX009 (ip), vehicle: saline with Tween-80) is 115 % of control; the T/C (dose: 250.0 mg/kg/injection, schedule: Q01DX009 (ip), vehicle: saline with Tween-80) is 121 % of control.

Consider `Cc1ncc([N+](=O)[O-])n1CCSC(N)=O`, for which the T/C under setting [4] is 94 % of control; the T/C under setting [5] is 124 % of control and 96 % of control; the T/C under setting [6] is 89 % of control; the T/C under setting [7] is 105 % of control and 95 % of control; the T/C under setting [8] was 90 % of control and 94 % of control; the T/C under setting [9] was 96 % of control.

Take `CC[C@]1(O)C[C@H]2CN(CCc3c([nH]c4ccccc34)[C@@](C(=O)OC)(c3cc4c(cc3OC)N(C=O)[C@H]3[C@@](O)(C(=O)OC)[C@H](OC(C)=O)[C@]5(CC)C=CCN6CC[C@]43[C@@H]65)C2)C1`: the T/C runs as follows: (dose: 0.95 mg/kg/injection, schedule: Q07DX003 (ip), vehicle: saline) 112 % of control and 115 % of control; (dose: 1.4 mg/kg/injection, schedule: Q07DX003 (ip), vehicle: saline) 120 % of control and 123 % of control; (dose: 2.1 mg/kg/injection, schedule: Q07DX003 (ip), vehicle: saline) 105 % of control; (dose: 3.0 mg/kg/injection, schedule: Q07DX003 (ip), vehicle: saline) 99 % of control.

With `Nc1ncnc2c1ncn2C1OC(CO)CC1O` (stereo not drawn), the T/C (dose: 37.5 mg/kg/injection, schedule: Q04DX002 (ip), vehicle: Klucel (hydroxypropylcellulose) (HPC)) is 101 % of control; the T/C (dose: 75.0 mg/kg/injection, schedule: Q04DX002 (ip), vehicle: Klucel (hydroxypropylcellulose) (HPC)) was 110 % of control; the T/C (dose: 150.0 mg/kg/injection, schedule: Q04DX002 (ip), vehicle: Klucel (hydroxypropylcellulose) (HPC)) is 93 % of control.

Consider `Cc1cc(C)c(-c2cc(O)c(C)cc2O)c(C)c1`, for which the T/C runs as follows: under setting [4], 107 % of control; under setting [5], 109 % of control; under setting [6], 106 % of control; under setting [7], 112 % of control; under setting [8], 112 % of control.

As to `CCNCCNc1ccc(NCCNCC)c2c1C(=O)c1ccccc1C2=O`, the T/C was 179 % of control (dose: 2.0 mg/kg/injection, schedule: Q01DX009 (ip), vehicle: acid diluted with saline); 189 % of control (dose: 4.0 mg/kg/injection, schedule: Q01DX009 (ip), vehicle: acid diluted with saline); 163 % of control and 166 % of control under setting [10]; 169 % of control and 177 % of control under setting [11].

On to `NC(=O)c1ncn(C2OC(CO)C(O)C2O)c1O` (stereo not drawn), for which the T/C runs as follows: (dose: 50.0 mg/kg/injection, schedule: Q04DX002 (ip), vehicle: Klucel (hydroxypropylcellulose) (HPC)) 107 % of control; (dose: 100.0 mg/kg/injection, schedule: Q04DX002 (ip), vehicle: Klucel (hydroxypropylcellulose) (HPC)) 98 % of control; (dose: 200.0 mg/kg/injection, schedule: Q04DX002 (ip), vehicle: Klucel (hydroxypropylcellulose) (HPC)) 107 % of control; (dose: 400.0 mg/kg/injection, schedule: Q04DX002 (ip), vehicle: Klucel (hydroxypropylcellulose) (HPC)) 111 % of control.

Regarding `CN(C1=NS(=O)(=O)N=C(N(C)c2ccccc2)O1)c1ccccc1`, the T/C is 96 % of control under setting [12], 89 % of control under setting [13], 95 % of control under setting [14] and 90 % of control under setting [15].

`CCCCCCCCNc1cc2c3c(c1)CCCN3CCC2`: the T/C (dose: 0.37 mg/kg/injection, schedule: Q04DX003 (ip), vehicle: Klucel (hydroxypropylcellulose) (HPC)) was 104 % of control; the T/C (dose: 0.75 mg/kg/injection, schedule: Q04DX003 (ip), vehicle: Klucel (hydroxypropylcellulose) (HPC)) was 100 % of control; the T/C (dose: 1.5 mg/kg/injection, schedule: Q04DX003 (ip), vehicle: Klucel (hydroxypropylcellulose) (HPC)) was 102 % of control; the T/C (dose: 3.0 mg/kg/injection, schedule: Q04DX003 (ip), vehicle: Klucel (hydroxypropylcellulose) (HPC)) was 109 % of control; the T/C (dose: 6.0 mg/kg/injection, schedule: Q04DX003 (ip), vehicle: Klucel (hydroxypropylcellulose) (HPC)) is 106 % of control.

With `O=C1c2ccccc2C(=O)c2c(NCCNCCNCCO)ccc(NCCNCCNCCO)c21`, the T/C by setting is: under setting [10], 102 % of control; under setting [11], 97 % of control; (dose: 32.0 mg/kg/injection, schedule: Q01DX009 (ip), vehicle: acid diluted with saline) 107 % of control; (dose: 64.0 mg/kg/injection, schedule: Q01DX009 (ip), vehicle: acid diluted with saline) 103 % of control; (dose: 128.0 mg/kg/injection, schedule: Q01DX009 (ip), vehicle: acid diluted with saline) 87 % of control.

As for `Nc1nc(=S)c2ncn(C3CC(O)C(CO)O3)c2[nH]1` (stereo not drawn), the T/C reads like this: (dose: 4.0 mg/kg/injection, schedule: Q04DX002 (ip), vehicle: saline with Tween-80) 121 % of control; (dose: 8.0 mg/kg/injection, schedule: Q04DX002 (ip), vehicle: saline with Tween-80) 106 % of control; (dose: 10.0 mg/kg/injection, schedule: Q04DX003 (ip), vehicle: saline with Tween-80) 177 % of control; (dose: 16.0 mg/kg/injection, schedule: Q04DX002 (ip), vehicle: saline with Tween-80) 106 % of control and 119 % of control; (dose: 32.0 mg/kg/injection, schedule: Q04DX002 (ip), vehicle: saline with Tween-80) 102 % of control; (dose: 40.0 mg/kg/injection, schedule: Q04DX003 (ip), vehicle: saline with Tween-80) 157 % of control. Besides, the T/C was 124 % of control (dose: 64.0 mg/kg/injection, schedule: Q04DX002 (ip), vehicle: saline with Tween-80); 116 % of control (dose: 128.0 mg/kg/injection, schedule: Q04DX002 (ip), vehicle: saline with Tween-80); 109 % of control (dose: 256.0 mg/kg/injection, schedule: Q04DX002 (ip), vehicle: saline with Tween-80).

With `CCC1OCC(C(Cl)CCl)O1` (stereo not drawn), the T/C is, setting by setting: under setting [12], 116 % of control; under setting [13], 97 % of control; under setting [14], 99 % of control; (dose: 100.0 mg/kg/injection, schedule: Q04DX003 (ip), vehicle: Klucel (hydroxypropylcellulose) (HPC)) 104 % of control; under setting [15], 92 % of control.

Turning to `O=P1(NCCCl)OCCCN1CCCl` (stereo not drawn), the T/C (dose: 12.5 mg/kg/injection, schedule: Q04DX003 (ip), vehicle: water) is 106 % of control; the T/C (dose: 25.0 mg/kg/injection, schedule: Q04DX003 (ip), vehicle: water) was 113 % of control; the T/C (dose: 200.0 mg/kg/injection, schedule: Q04DX003 (ip), vehicle: water) is 188 % of control.
